In patent US20250115894A1, “Three-dimensional model of exposed microbial membranes at gas-liquid interface and preparation method thereof” (priority 2023, published 2025):
Where a name gives a salt, the structure may show the parent alone.

Key:
[1] = tested on: 29 recombinant Escherichia coli strains carrying plasmids with different genetic pathways; assay: In-situ gaseous exposure genotoxicity detection with hydrogel beads containing immobilized recombinant Escherichia coli strains; assay type: cell-based
From the text: Embodiment 5: Immobilization of 29 recombinant Escherichia coli strains carrying plasmids with different genetic pathways by hydrogel beads for genotoxicity detection of pollutants, including DNA damage, DNA repair, and oxidative stress: • (1) The nutrient in the core was a modified M9 medium, including MgCl2, CaCl2), NaCl, NH4Cl, Tris-HCl (pH-7.4) buffer, and glucose, to ensure the continued survival of the recombinant Escherichia coli strains when exposed at the air-liquid interface. • (2) The hydrogel beads containing immobilized 29 recombinant Escherichia coli strains, were assembled in a specially designed gaseous exposure system. Different concentrations (ranging from 20 to 500 mg/m^3) of gaseous methanesulfonic acid methyl ester were introduced into the exposure system for simultaneous exposure. […] In summary, a rapid analysis of the genotoxicity fingerprint of gaseous methanesulfonic acid methyl ester was conducted from the perspective of in-situ exposure.

[2] = tested on: Recombinant Escherichia coli strains with the rec A genetic pathway; assay: Fluorescent signal of rec A recombinant strains exposed to dimethyl sulfate solution, immobilized versus not immobilized; assay type: cell-based; settings: 50 mg/L solution of dimethyl sulfate
[3] = 20 to 500 mg/m^3, as exposure concentration increased

SMILES	Ina A gene expression (SOS response) ([1]; 20 to 500 mg/m^3)	pol B gene pathway expression (DNA damage/repair) ([1]; 20 to 500 mg/m^3)	rec A gene pathway expression (DNA damage/repair) ([1]; 20 to 500 mg/m^3)	rec N gene pathway expression (DNA damage/repair) ([1]; 20 to 500 mg/m^3)	sox R gene expression (SOS response) ([1]; 20 to 500 mg/m^3)	Kat G gene expression (oxidative stress) [1, 3]	ahp C gene expression (oxidative stress) [1, 3]	Fluorescent signals of rec A strains immobilized in hydrogel beads compared to not immobilized [2]
COS(C)(=O)=O [methanesulfonic acid methyl ester]	downregulation	significant upregulation	significant upregulation	significant upregulation	downregulation	significant upregulation	significant upregulation	
COS(=O)(=O)OC [dimethyl sulfate]								stronger fluorescent signals
